# Where two headings read alike, the source gives them in different places.
# Assays:
# murine brown adipocytes [1] = experiment: [18F]FDG uptake in brown adipocytes (brown adipocyte activation); assay type: cell-based; settings: 30 min pre-treatment, baseline (vehicle) = 100% uptake/well, mean ± SD
# Experimental: (§1) Cells were maintained under standard conditions in a humidified incubator (37°C, 5% CO2). CHO-K1 cells expressing the human adrenergic beta-3 receptor (CHO-K1-ADRB3) were purchased from PerkinElmer (ValiScreen® ES-035-C). CHO-K1-ADRB3 were grown using Ham's F12 (Nut Mix) supplemented with 10% FCS, 2 mM L-glutamine, penicillin (100 Units/mL), streptomycin (100 μg/mL), and 0.4 mg/mL geneticin. CHO-K1 cells were a generous gift from Prof. Karl Norbert Klotz (University Würzburg, Germany) and cultured likewise without selection antibiotics. Immortalized murine brown pre-adipocytes were provided by the Department of Medicine III (Medical University of Vienna, Austria) and cultured in high glucose Dulbecco's Modified Eagle's Medium (DMEM) supplemented with 10% FBS, 1 mM pyruvate, penicillin (100 Units/mL) and streptomycin (100 μg/mL). When cells were confluent, differentiation to brown adipocytes was induced for 48 h using 1.72 μM insulin (human recombinant), 1 nM thyroid hormone (T3), 0.5 mM 3-isobutyl-1-methylxanthine (IBMX), 125 nM indomethacin, and 1 μM dexamethasone. After induction, the medium was changed to post-differentiation medium (high glucose DMEM) supplemented with 10% FBS, 1 mM pyruvate, penicillin (100 Units/mL), streptomycin (100 μg/mL), 1.72 μM insulin, and 1 nM T3. The post-differentiation medium was replenished every second day. Brown adipocytes were used for experimental investigations 4–6 days after induction. Oil Red O staining was performed according to the manufacturer's instructions. Counterstaining was performed using haematoxylin.
# Brown pre-adipocytes were seeded, grown to confluence and differentiated in 6-well plates as described in section General. Cell starving was performed for 1 h using unsupplemented, glucose-free DMEM. […] [^18F]FDG uptake was performed for 50 min at 37°C (humidified atmosphere, 5% CO2). Supernatant was taken off, cells were washed with ice-cold PBS and finally trypsinized. Radioactive cell fractions were gamma counted (2480 Wizard^2, PerkinElmer) and normalized to percentage uptake per well. [^18F]FDG uptake under baseline conditions refers to 100% uptake. Three independent experiments were performed in triplicates. Statistical analysis was performed using an unpaired, two-tailed t-test.
# murine brown adipocytes [2] = experiment: Specific [11C]SNAP-7941 binding to brown adipocytes (competition); assay type: cell-based; settings: 2 μM unlabeled compound; for [11C]SNAP-7941 binding per well referring to baseline: 30 min pre-treatment, baseline (vehicle) = 100% binding/well, mean ± SD
# Experimental: as §1
# Brown pre-adipocytes were seeded, grown to confluence and differentiated in six-well plates as described above. Thirty minutes prior to the experiment, maintenance medium (cf. 2.1) was discarded and replaced with respective serum- and additive-free medium to avoid plasma protein binding of the PET-tracer. Cell starving, as performed for [^18F]FDG uptake measurements, was not indicated for [^11C]SNAP-7941 binding experiments. […] Baseline was determined using DMSO or ethanol, respectively. Sample processing, data analysis and statistical testing were performed as described in [^18F]FDG Uptake Experiments: Effects of MCHR1 Ligands on Brown Adipocyte Activation.
# MCHR1 = biological target: MCHR1; parameters: method as in PMID 28808288; settings: previously described; ref [28]; cited from earlier work
# CHO-K1-ADRB3 cells = biological target: T1, CHO-K1-ADRB3 cells (Homo sapiens, UniProt P13945); experiment: Real-time kinetic displacement of [125I]Iodocyanopindolol binding (LigandTracer); assay type: cell-based; settings: 20 μM non-radioactive compound applied after 60 min association phase
# T1 construct: host or cells: CHO-K1
# Experimental: 2.5 × 10^5 cells (CHO-K1, CHO-K1-ADRB3) per cell culture dish were seeded 2 days prior to the experiment and incubated in an inclined position to allow an adherent cell pole at one side of the cell dish. Cell dish preparation was performed as previously described ([32], [33]). Real-time kinetic radioligand binding measurements were performed using a dedicated device for low energy gamma radiation (LigandTracer® Gray Technology, Ridgeview, Sweden). The assay protocol compromised consecutive radioactivity measurements of the target region (cell pole) and of the opposite pole of the petri dish, where no cells were seeded (background signal). Radioactivity was counted in each region for 3 s with a delay of 2 s over the time course of the experiment. Raw counts per second (cps) of the target region were corrected for background signal and for radioactive decay. Displacement of [^125I]Iodocyanopindolol binding was conducted after 1 h association phase of radioligand binding by consecutively applying rising concentrations of SNAP-7941 and FE@SNAP. The same volume of ethanol was added as vehicle control. Experiments were performed on at least three different days.
# [3] = biological target: T2, human adrenergic beta-3 receptor (ADRB3) (Homo sapiens, UniProt P13945); experiment: Competitive binding assay, CHO-K1-ADRB3 cell membranes, [3H]CGP-12177 radioligand; settings: for Ki: CHO-K1-ADRB3 membranes, 5 nM [3H]CGP-12177, 90 min 27°C, read-out: Ki ADRB3 experimental; for ADRB3/ MCHR1 (ratio of Ki values): selectivity toward MCHR1, ADRB3 Ki measured, MCHR1 Ki from ref [28]
# T2 construct: host or cells: CHO-K1
# Experimental: CHO-K1-ADRB3 cell membranes were prepared from 175 cm^2 cell culture flasks, when 80% confluence was reached. All procedures were performed at 4°C. Cells were scraped off using ice-cold lysis buffer (10 mM Tris-HCl pH 7.4, 1 mM EDTA) and protease inhibitor cocktail was added according to the manufacturer's instructions (Sigma-Aldrich, St. Louis, USA). The cell suspension was homogenized using cannulas (29 G) and centrifuged for 10 min at 1,000 × g. The obtained supernatant was centrifuged for 30 min at 100,000 × g. Subsequently, the pellet was suspended using 50 mM Tris-HCl pH 7.4 and aliquoted. Aliquots were shock-frozen in liquid nitrogen and stored at −80°C until usage. Protein concentration of the cell membrane suspension was determined using BCA Protein Assay Kit (Thermo Scientific, Waltham, USA).
# All stated concentrations refer to the final assay volume of 500 μL buffer (25 mM HEPES pH 7.4, 1 mM EDTA, 0.5% BSA). Competitive binding assays were performed using 13.6 ng/μL ADRB3 expressing CHO-K1 cell membrane suspension (cf. 2.3) and 5 nM [^3H]CGP-12177 as the respective radioligand. […] Nonspecific binding was determined using 10 μM carazolol. Total binding was determined in the presence of 1% respective solvent. Incubation was performed for 90 min at 27°C. Filtration through GF/B filters (Whatman®, presoaked in 0.05% PEI) was performed using a cell harvester (Brandel®, Gaithersburg, MD, USA) and was followed by two washing steps using ice-cold wash buffer (10 mM HEPES, 500 mM NaCl, pH 7.4). Filter pieces containing receptor-bound radioactivity were shaken for 30 min in scintillation cocktail (Ultima Gold™, PerkinElmer, Waltham, USA) before liquid scintillation counting (Hidex 300 SL, Turku, Finland). IC50 fitted binding curves were generated using the GraphPad Software 5.0 (La Jolla, CA, USA) using nonlinear regression.
# ADRB3 [4] = biological target: ADRB3; parameters: method as in PMID 20590599; settings: assumed for Ki calculation; ref [31]; cited from earlier work
# ADRB3 [5] = biological target: ADRB3; parameters: method as in PMID 14730417, PMID 8719421, PMID 7903415, PMID 2570461; settings: literature values for standard compounds; ref [43], [45]–[47]; read-out: Ki ADRB3 reference; cited from earlier work
# T2 sequence (P13945 whole entry): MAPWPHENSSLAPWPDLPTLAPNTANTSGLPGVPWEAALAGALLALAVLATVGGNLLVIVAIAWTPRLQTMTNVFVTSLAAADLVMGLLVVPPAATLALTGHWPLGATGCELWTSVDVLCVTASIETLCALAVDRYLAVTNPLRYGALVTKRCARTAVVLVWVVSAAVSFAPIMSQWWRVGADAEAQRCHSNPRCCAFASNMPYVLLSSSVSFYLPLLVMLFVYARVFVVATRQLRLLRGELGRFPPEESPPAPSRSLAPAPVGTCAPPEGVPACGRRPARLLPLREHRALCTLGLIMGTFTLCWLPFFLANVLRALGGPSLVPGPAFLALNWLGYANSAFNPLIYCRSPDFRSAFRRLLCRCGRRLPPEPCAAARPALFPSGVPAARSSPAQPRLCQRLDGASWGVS
# T1 sequence (P13945 whole entry): as above
SMILES,[18F]FDG uptake referring to baseline (murine brown adipocytes [1]; 2 μM compound),[11C]SNAP-7941 binding per well referring to baseline (murine brown adipocytes [2]) [%],[18F]FDG uptake referring to baseline (murine brown adipocytes [1]; 20 μM compound) [%],Ki (MCHR1) [nM],Effect on [125I]Iodocyanopindolol binding to CHO-K1-ADRB3 cells (CHO-K1-ADRB3 cells),Ki ([3]; n = 3 in triplicates) [nM],ADRB3/ MCHR1 (ratio of Ki values) [3],further results
"CC(C)NC[C@H](O)COc1cccc2ccccc12.Cl [(S)-propranolol, (S)-propranolol hydrochloride]",did not alter,95.8 ± 8.6,,,,,,[11C]SNAP-7941 binding per well referring to baseline (murine brown adipocytes [2]; listed as propranolol): did not alter
"C[C@H](Cc1ccc2c(c1)OC(C(=O)[O-])(C(=O)[O-])O2)NC[C@H](O)c1cccc(Cl)c1.[Na+].[Na+] [CL 316,243, reference compound]",137.7 ± 12.2%,91.1 ± 3.6,,,,,,
COCC1=C(C(=O)OCCF)C(c2ccc(F)c(F)c2)N(C(=O)NCCCN2CCC(c3cccc(NC(C)=O)c3)CC2)C(=O)N1 (centres unmarked) [FE@SNAP],,,73.03 ± 13.6,9.98 ± 1.12,did not affect binding,65100 ± 2900,"~6,523",
COCC1=C(C(=O)OC)[C@H](c2ccc(F)c(F)c2)N(C(=O)NCCCN2CCC(c3cccc(NC(C)=O)c3)CC2)C(=O)N1 [SNAP-7941],,77.1 ± 5.0,63.24 ± 2.6,3.91 ± 0.74,did not affect binding,14500 ± 300,"~3,708",Reduction of [11C]SNAP-7941 binding (murine brown adipocytes [2]; versus baseline): 22.9 ± 5.0%
"CC(C)(C)NCC(O)COc1cccc2[nH]c(=O)[nH]c12 (stereo not drawn) [[^3H]CGP-12177, 5,7-[^3H](-)CGP-12177]",,,,,,,,Kd (ADRB3 [4]): 109 nM
"CC(C)NCC(O)COc1cccc2[nH]c3ccccc3c12 (centres unmarked) [carazolol, reference compound]",,,,,,,,Ki (ADRB3 [5]): 2 nM; Ki ([3]; three independent experiments in triplicates): 2 ± 0.3 nM

# Reference: PMC6581027, “In vitro Radiopharmaceutical Evidence for MCHR1 Binding Sites in Murine Brown Adipocytes” (Frontiers in Endocrinology, 2019)
